Assay results reported in patent US20050059626A1, “Methods of preventing and treating viral infections using immunomodulatory polynucleotide sequences” (priority 2000, published 2005).

Assays:
HSV-1 [1] = assay: Viral titer after pre-treating HSV-1 virus with oligonucleotide, Vero cells; format: cell-based, African Green monkey (Vero cells)
Experimental: (§1) HSV-1 or HSV-2 virus was pre-treated with varying concentrations of ISS or non-ISS oligonucleotides for 10 minutes prior to adding the mixture to plated Vero cells. Oligonucleotides were used at 1 μg/ml or 10 μg/ml. Viral titers were calculated as a percent of control titer generated by cells not treated with the oligonucleotides. The data are expressed as percent of control titer.

HSV-2 [2] = assay: Viral titer after pre-treating HSV-2 virus with oligonucleotide, Vero cells; format: cell-based, African Green monkey (Vero cells)
Experimental: as §1

HSV-1 [3] = assay: Viral titer from Vero cells pre-treated with oligonucleotide, HSV-1; format: cell-based, African Green monkey (Vero cells); conditions: cells infected with HSV-1
Experimental: (§2) Vero cells, a cell line derived from African Green monkey kidney, were pre-treated with varying concentrations of ISS or non-ISS oligonucleotides for varying times prior to the addition of HSV-1 or HSV-2. Oligonucleotides were used at 1 μg/ml or 10 μg/ml and the cells were incubated with the oligonucleotides for 30 seconds, 10 minutes or 24 hours. Viral titers were calculated as a percent of control titer generated by cells not treated with the oligonucleotides. The data are expressed as percent of control titer.

HSV-2 [4] = assay: Viral titer from Vero cells pre-treated with oligonucleotide, HSV-2; format: cell-based, African Green monkey (Vero cells); conditions: cells infected with HSV-2
Experimental: as §2

HSV-2 strain MS = assay: Recurrent genital HSV-2 disease in guinea pigs; format: in vivo, Swiss Hartley guinea pigs; conditions: 3 times/day for 7 days starting 6 hours post inoculation (21 treatments)
HBV = assay: Chronic HBV model: serum HBV DNA and HBsAg in STC transgenic mice; format: in vivo, STC strain transgenic mice; conditions: STC mice; ISS 100 μg SC; murine IL-12 100 ng IP days 12, 13, 14
Experimental: ISS activity was tested in an animal model of chronic hepatitis. An ISS-containing phosphorothioate oligonucleotide (5′-[…]-3′) (SEQ ID NO:1), was delivered to STC strain transgenic mice, followed by measurement of HBV DNA and HBsAg production.
STC line mice were developed at Stanford University by Patricia Marion. The majority of these mice secrete HBV of the Ayw genotype (Galibert et al. (1979) Nature 281:646) to titers of 10^6-8 viral genome equivalents per ml of serum. STC mice were derived from the FVB strain, and were constructed by microinjection of HBV genomic DNA.
Approximately one month old mice were bled and tested for serum levels of HBsAg, which is predictive of viral DNA titer. A pool of 40 STC mice with approximately equal levels of HBsAg were selected and randomly assigned to four treatment groups of 10 animals each. The groups were treated as follows: • 1. 100 μg of ISS injected subcutaneously, once per week for 3 weeks (days 0, 7, 14) • 2. 100 μg of ISS injected subcutaneously, one injection at day 14 • 3. 100 ng of murine 1L-12 injected intraperitoneally on days 12, 13, and 14. • 4. PBS injected subcutaneously (days 0, 7, 14)
Blood samples were taken at day 0, 7, 14, 15 (22 hr after last IL-12 injection), 18, 28 and 35. Serum prepared from the blood samples was tested for HBV DNA by quantitative PCR (testing performed under contract by Hepadnavirus Testing, Inc.), and HBsAg using a commercially available EIA kit for HBsAg from Abbott Laboratories. Animals were sacrificed at day 35 and livers were collected for histologic analysis.

[5] = HSV-1 virus pre-treated 10 minutes with 1 μg/ml
[6] = HSV-1 virus pre-treated 10 minutes with 10 μg/ml
[7] = HSV-2 virus pre-treated 10 minutes with 1 μg/ml
[8] = HSV-2 virus pre-treated 10 minutes with 10 μg/ml
[9] = cells pre-treated 1 μg/ml, 30 sec
[10] = cells pre-treated 1 μg/ml, 10 min
[11] = cells pre-treated 1 μg/ml, 24 hr
[12] = cells pre-treated 10 μg/ml, 30 sec
[13] = cells pre-treated 10 μg/ml, 10 min
[14] = cells pre-treated 10 μg/ml, 24 hr

| Molecule | Viral titer, percent of control titer (HSV-1 [1]; [5]) | Viral titer, percent of control titer (HSV-1 [1]; [6]) | Viral titer, percent of control titer (HSV-2 [2]; [7]) | Viral titer, percent of control titer (HSV-2 [2]; [8]) | Viral titer, percent of control titer (HSV-1 [3]; [9]) | Viral titer, percent of control titer (HSV-1 [3]; [10]) | Viral titer, percent of control titer (HSV-1 [3]; [11]) | Viral titer, percent of control titer (HSV-1 [3]; [12]) | Viral titer, percent of control titer (HSV-1 [3]; [13]) | Viral titer, percent of control titer (HSV-1 [3]; [14]) | Viral titer, percent of control titer (HSV-2 [4]; [9]) | Viral titer, percent of control titer (HSV-2 [4]; [12]) | Viral titer, percent of control titer (HSV-2 [4]; [13]) | Viral titer, percent of control titer (HSV-2 [4]; [14]) | Viral titer, percent of control titer (HSV-2 [4]; [10]) | Viral titer, percent of control titer (HSV-2 [4]; [11]) | Cumulative recurrent mean lesion days (HSV-2 strain MS) | Effect on serum HBV DNA viral titer (HBV) |
| --- | --- | --- | --- | --- | --- | --- | --- | --- | --- | --- | --- | --- | --- | --- | --- | --- | --- | --- |
| 5′-TCGTCGAACGTTCGTTAACGTTCG-3′ (listed as DNA, chemistry not given here) [SEQ ID NO: 11, ISS oligonucleotide] | 100% of control titer | 100% of control titer | 101% of control titer | 97% of control titer | 129% of control titer | 95% of control titer | 87% of control titer | 122% of control titer | 96% of control titer | 78% of control titer | 119% of control titer | 136% of control titer | – | – | – | – | – | – |
| 5′-TGACTGTGAACCTTAGAGATGA-3′ (chemistry not given here) [SEQ ID NO: 12, non-ISS control oligonucleotide, reference compound] | 98% of control titer | 101% of control titer | 100% of control titer | 97% of control titer | 132% of control titer | 98% of control titer | 97% of control titer | 141% of control titer | 100% of control titer | 94% of control titer | 111% of control titer | 129% of control titer | 100% of control titer | 98% of control titer | – | – | – | – |
| 5′-TGACTGTGAAGGTTAGAGATGA-3′ (chemistry not given here) [SEQ ID NO: 9, reference compound] | 102% of control titer | 103% of control titer | 98% of control titer | 106% of control titer | 100% of control titer | 99% of control titer | 101% of control titer | 96% of control titer | 100% of control titer | 97% of control titer | 98% of control titer | 103% of control titer | 97% of control titer | 99% of control titer | 96% of control titer | 103% of control titer | – | – |
| Nc1nc2c(ncn2COCCO)c(=O)[nH]1 [Acyclovir, reference compound] | – | – | – | – | – | – | – | – | – | – | – | – | – | – | – | – | significant reduction in cumulative recurrent mean lesion days | – |
| murine IL-12: murine IL-12, 100 ng injected intraperitoneally as comparator in STC mice (protein, UniProt P43431 23-215; P43432 23-335, looked up) Interleukin-12 subunit alpha: RVIPVSGPARCLSQSRNLLKTTDDMVKTAREKLKHYSCTAEDIDHEDITRDQTSTLKTCLPLELHKNESCLATRETSSTTRGSCLPPQKTSLMMTLCLGSIYEDLKMYQTEFQAINAALQNHNHQQIILDKGMLVAIDELMQSLNHNGETLRQKPPVGEADPYRVKMKLCILLHAFSTRVVTINRVMGYLSSA Interleukin-12 subunit beta: MWELEKDVYVVEVDWTPDAPGETVNLTCDTPEEDDITWTSDQRHGVIGSGKTLTITVKEFLDAGQYTCHKGGETLSHSHLLLHKKENGIWSTEILKNFKNKTFLKCEAPNYSGRFTCSWLVQRNMDLKFNIKSSSSSPDSRAVTCGMASLSAEKVTLDQRDYEKYSVSCQEDVTCPTAEETLPIELALEARQQNKYENYSTSFFIRDIIKPDPPKNLQMKPLKNSQVEVSWEYPDSWSTPHSYFSLKFFVRIQRKKEKMKETEEGCNQKGAFLVEKTSTEVQCKGGNVCVQAQDRYYNSSCSKWACVPCRVRS | – | – | – | – | – | – | – | – | – | – | – | – | – | – | – | – | – | effective in reducing viral titer |
